Assay results taken from article PMC6934184, “Selective DNA-PKcs inhibition extends the therapeutic index of localized radiotherapy and chemotherapy” (The Journal of Clinical Investigation, 2019).

Target: T1, MATK (HYL) (Homo sapiens, UniProt P42679)
T1 construct: purchased Thermo Fisher Scientific (Life Technologies) SelectScreen
Assay: SelectScreen Z'LYTE
Type: biochemical
Procedure, shortened: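 SelectScreen broad panel; activity (Z'LYTE, Adapta) plus binding formats. ATP: Km app for CSF1R Z'LYTE; 10 for CAMK1 Adapta. Readout = % per kinase.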

T1 sequence (P42679 whole entry): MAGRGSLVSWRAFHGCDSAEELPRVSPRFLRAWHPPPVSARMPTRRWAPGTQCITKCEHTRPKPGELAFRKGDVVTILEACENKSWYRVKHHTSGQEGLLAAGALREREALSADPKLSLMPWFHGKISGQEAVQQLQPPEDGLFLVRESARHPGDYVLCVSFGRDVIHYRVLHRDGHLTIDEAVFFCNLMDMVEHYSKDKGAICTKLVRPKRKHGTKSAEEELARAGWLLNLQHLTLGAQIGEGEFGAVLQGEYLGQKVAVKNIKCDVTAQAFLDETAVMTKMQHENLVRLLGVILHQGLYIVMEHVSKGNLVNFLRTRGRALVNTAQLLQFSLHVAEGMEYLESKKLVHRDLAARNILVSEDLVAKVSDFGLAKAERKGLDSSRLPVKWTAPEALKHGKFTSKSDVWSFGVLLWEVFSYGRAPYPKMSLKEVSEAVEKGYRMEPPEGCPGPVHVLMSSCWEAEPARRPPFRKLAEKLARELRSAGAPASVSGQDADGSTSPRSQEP

`CN(C(=O)CN1CCOCC1)c1ccc2sc3c(-c4cccc5c(=O)cc(N6CC7CCC(C6)O7)oc45)cccc3c2c1` [NU5455] was tested, and the inhibition at 1 µM was -6.3%.
